This passage reports IC50 results from patent publication US6645726B1, “Canine growth hormone secretagogue receptor” (Merck & Co., Inc., priority 1998, dated 2003).

SMILES strings stand for the structures.

The target in test [1] is T1, cloned canine GHSR (Canis lupus familiaris, UniProt A5HKU8).
T1 construct: full-length open reading frame placed in the mammalian expression vector pcDNA-3; expressed in transfected cells; host or cells: COS-7 or HEK-293 (crude membranes)
Nature of the test: [35S]-MK-677 competition binding, cloned canine GHSR membranes. Particulars: competition with 35S-MK-677, crude membranes of transfected COS-7 or HEK-293 cells, 20° C., 1 hr. As to the method: Expression of the canine -GHSR was monitored using a [^35S]-MK-677 binding assay conducted on cells transfected with a canine GHSR expression plasmid (full-length open reading frame placed in the mammalian expression vector pcDNA-3). Mammalian cells (COS-7, HEK-293) were transfected with GHSR expression plasmids using Lipofectamine (GIBCO-BRL; Hawley-Nelson, 1993, Focus 15:73). Transfections were performed in 60 mm dishes on 80% confluent cells (approximately 4×10^5cells) with 8 μg of Lipofectamine and 32 μg of GHSR plasmid DNA.
Binding of ^35S-MK-677 to crude membranes prepared from COS-7 or HEK-293 cells transfected with GHSR expression plasmids was conducted. Crude cell membranes from COS-7 transfectants were prepared on ice, 48 hrs post-transfection. Each 60 mm dish was washed twice with 3 ml of PBS, once with 1 ml homogenization buffer (50 mM Tris-HCl (pH 7.4), 5 mM MgCl2, 2.5 mM EDTA, 30 μg/ml bacitracin). 0.5 ml of homogenization buffer was added to each dish, cells were removed by scraping and then homogenized using a POLYTRON device (Brinkmann, Syosset, N.Y.; 3 bursts of 10 seconds at setting 4). […] After application of the membrane suspension to the filter, the filters were washed 3 times with 3 ml each of ice cold 50 mM Tris-HCl (pH 7.4), 10 mM MgCl2, 2.5 mM-EDTA, and 0.015% Triton X-100, and the bound radioactivity on the filters was quantitated by scintillation counting.

Test [2] concerns the target T2, native canine pituitary GHSR (Canis lupus familiaris, UniProt A5HKU8).
T2 construct: native canine pituitary GHSR; from tissue; host or cells: canine pituitary
Nature of the test: [35S]-MK-677 competition binding, native canine pituitary GHSR. Particulars: comparison value.

T1 sequence (A5HKU8 1-349): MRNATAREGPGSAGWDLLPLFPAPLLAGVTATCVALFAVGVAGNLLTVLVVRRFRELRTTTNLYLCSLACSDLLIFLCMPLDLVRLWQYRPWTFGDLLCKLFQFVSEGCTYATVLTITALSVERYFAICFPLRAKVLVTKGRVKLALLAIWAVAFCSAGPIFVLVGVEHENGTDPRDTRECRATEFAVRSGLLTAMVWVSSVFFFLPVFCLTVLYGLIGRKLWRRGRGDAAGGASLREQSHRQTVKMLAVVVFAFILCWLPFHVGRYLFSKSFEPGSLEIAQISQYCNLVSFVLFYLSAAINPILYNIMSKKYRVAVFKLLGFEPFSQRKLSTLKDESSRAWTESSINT
T2 sequence (A5HKU8 1-349): as above

Consider `CC(C)(N)C(=O)N[C@H](COCc1ccccc1)C(=O)N1CCC2(CC1)CN(S(C)(=O)=O)c1ccccc12` [MK-677], for which the values for the IC50 in test [1] and in test [2] were 2.2 nM and 1 nM, respectively.
